Laboratory results as given in the supplement of paper PMC10307832.

Experiments:
Assay in all cases: relative viability (nuclei count vs DMSO), 5 days (fraction); higher = more cells survive
[1] = compound: O=C(CCCCCCNC(=O)c1cnc(N(c2ccccc2)c2ccccc2)nc1)NO [Ricolinostat] + N=C(N)NC(=N)NCCc1ccccc1 [Phenformin] (partner 250 µM)
Method in brief: (§1)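 Cells from lung cancer lines were seeded into 1536-well plates and, one day later, dosed by pin tool. Treatments were either a single drug or a fixed dose of an anchor drug with five library-drug doses (not always all listed) in √10 steps. After 5 days, nuclei were stained in a one-step fixation (final 0.05% Triton X-100, 1% formaldehyde, 1 ug/ml Hoechst) and counted on 4× images, and relative viability is the treated-to-vehicle nuclei ratio, as the median of duplicate plates.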

TGX 221 + Lapatinib = compound: CC1=CN2C(=O)C=C(N=C2C(=C1)C(C)NC3=CC=CC=C3)N4CCOCC4 [TGX 221] + CS(=O)(=O)CCNCc1ccc(-c2ccc3ncnc(Nc4ccc(OCc5cccc(F)c5)c(Cl)c4)c3c2)o1 [Lapatinib] (partner 2 µM)
Method in brief: as §1

[2] = compound: C1=CC=C(C(=C1)C2=CC=C(C=C2)C3=CSC4=C3C(=C(C(=O)N4)C#N)O)O + N=C(N)NC(=N)NCCc1ccccc1 [Phenformin] (partner 250 µM)
Method in brief: as §1

Ricolinostat + Olaparib = compound: O=C(CCCCCCNC(=O)c1cnc(N(c2ccccc2)c2ccccc2)nc1)NO [Ricolinostat] + O=C(c1cc(Cc2n[nH]c(=O)c3ccccc23)ccc1F)N1CCN(C(=O)C2CC2)CC1 [Olaparib] (partner 8 µM)
Method in brief: as §1

Cell Line	relative viability ([1]; first compound 0.253 µM)	relative viability ([1]; first compound 0.8 µM)	relative viability ([1]; first compound 2.53 µM)	relative viability (TGX 221 + Lapatinib; first compound 0.08 µM)	relative viability (TGX 221 + Lapatinib; first compound 0.253 µM)	relative viability (TGX 221 + Lapatinib; first compound 0.8 µM)	relative viability (TGX 221 + Lapatinib; first compound 2.53 µM)	relative viability (TGX 221 + Lapatinib; first compound 8 µM)	relative viability ([2]; first compound 0.08 µM)	relative viability ([2]; first compound 0.253 µM)	relative viability ([2]; first compound 0.8 µM)	relative viability ([2]; first compound 2.53 µM)	relative viability ([2]; first compound 8 µM)	relative viability (Ricolinostat + Olaparib; first compound 0.08 µM)	relative viability (Ricolinostat + Olaparib; first compound 0.253 µM)	relative viability (Ricolinostat + Olaparib; first compound 0.8 µM)	relative viability (Ricolinostat + Olaparib; first compound 2.53 µM)	relative viability ([1]; first compound 0.08 µM)
NCI-H3122	0.378	0.369	0.318	1.01	0.994	1.02	1.01	0.985	0.352	0.364	0.432	0.387	0.37	0.571	0.618	0.54	0.55	
HCC-15	0.509	0.486	0.496	0.842	0.8	0.821	0.823	0.861	0.407	0.516	0.496	0.494	0.387	0.669	0.57	0.64	0.59	0.411
NCI-H2009	0.46	0.446	0.43	0.961	0.927	0.894	0.882	0.772	0.443	0.505	0.457	0.496	0.387	0.67	0.663	0.623	0.457	0.455
NCI-H23	0.749	0.8	0.706	1.13	0.95	1.1	1.12	0.975	0.782	0.85	0.872	0.754	0.583	0.351	0.278	0.27	0.275	0.72
NCI-H1623	0.582	0.557	0.556						0.623	0.623	0.569	0.568	0.534					0.559
NCI-H1734	0.452	0.351	0.466	0.907	1.05	1.1	1.06	0.927	0.368	0.381	0.41	0.377	0.319	0.61	0.642	0.601	0.324	0.35
NCI-H2170	0.426	0.407	0.373	0.285	0.26	0.264	0.276	0.265	0.38	0.423	0.441	0.403	0.375	0.569	0.507	0.625	0.539	0.394
NCI-H2342	0.578	0.614	0.713						0.578	0.704	0.58	0.602	0.469	0.444	0.535	0.421	0.46	0.475
HCC-366	0.606	0.619	0.432	1.02	1	0.875	1.04	1.04	0.632	0.623	0.584	0.646	0.591	0.272	0.309	0.277	0.212	0.509
HARA	0.452	0.427	0.124	0.788	0.722	0.707	0.662	0.766	0.323	0.542	0.433	0.431	0.425	0.855	0.889	0.29	0.482	0.411
NCI-H2087	0.441	0.405	0.239	1.09	0.912	1.13	0.985	1.11	0.441	0.481	0.464	0.366	0.362	0.502	0.588	0.671	0.357	
NCI-H1650	0.408	0.445	0.218	0.654	0.64	0.617	0.759	0.581	0.406	0.358	0.437	0.439	0.362	0.767	0.632	0.823	0.579	0.338
NCI-H1563	0.647	0.685	0.671	0.922	0.871	0.791	0.851	0.796	0.63	0.714	0.702	0.622	0.679					0.596
NCI-H1666	0.572	0.547	0.521	0.648	0.654	0.695	0.618	0.683	0.578	0.739	0.547	0.532	0.484	0.708	0.709	0.695	0.829	0.481
LCLC-103H	0.323	0.371	0.325						0.265	0.342	0.374	0.354	0.305	0.675	0.655	0.771	0.743	0.252
HOP-62	0.657	0.623	0.503	1.15	0.987	1.09	1.02	0.912	0.57	0.854	0.565	0.679	0.359	0.516	0.408	0.31	0.394	0.586
BEN	0.283	0.228	0.225	0.721	0.719	0.506	0.68	0.605	0.282	0.289	0.265	0.278	0.274	1.05	0.995	0.999	1.02	0.321
NCI-H1299				0.987	0.99	0.978	1.03	0.894						0.95	0.914	0.942	0.91	
UMC-11	0.344	0.271	0.194	0.879	0.854	0.901	0.909	1.18	0.309	0.404	0.344	0.291	0.27	0.345	0.339	0.323	0.198	0.273
NCI-H1755	0.6	0.608	0.604	1.06	1.02	1.01	0.974	0.943	0.693	0.647	0.606	0.617	0.6	0.826	0.809	0.814	0.739	0.45
SK-LU-1	0.666	0.565	0.395	0.883	0.951	0.754	0.898	0.682	0.378	0.44	0.538	0.639	0.566	0.371	0.478	0.362	0.382	0.449

Cell Line	relative viability ([1]; first compound 0.253 µM)	relative viability ([1]; first compound 0.8 µM)	relative viability ([1]; first compound 2.53 µM)	relative viability (TGX 221 + Lapatinib; first compound 0.08 µM)	relative viability (TGX 221 + Lapatinib; first compound 0.253 µM)	relative viability (TGX 221 + Lapatinib; first compound 0.8 µM)	relative viability (TGX 221 + Lapatinib; first compound 2.53 µM)	relative viability (TGX 221 + Lapatinib; first compound 8 µM)	relative viability ([2]; first compound 0.08 µM)	relative viability ([2]; first compound 0.253 µM)	relative viability ([2]; first compound 0.8 µM)	relative viability ([2]; first compound 2.53 µM)	relative viability ([2]; first compound 8 µM)	relative viability (Ricolinostat + Olaparib; first compound 0.08 µM)	relative viability (Ricolinostat + Olaparib; first compound 0.253 µM)	relative viability (Ricolinostat + Olaparib; first compound 0.8 µM)	relative viability (Ricolinostat + Olaparib; first compound 2.53 µM)	relative viability ([1]; first compound 0.08 µM)
NCI-H1793	0.438	0.355	0.369	0.633	0.624	0.721	0.58	0.456	0.306	0.427	0.372	0.318	0.229	0.692	0.825	0.903	0.902	
NCI-H647	0.512	0.563	0.275	0.95	0.869	0.955	0.746	0.61	0.285	0.615	0.586	0.555	0.349	0.446	0.521	0.465	0.261	0.397
NCI-H1975	0.413	0.396	0.401	0.92	0.855	0.861	0.796	0.791	0.379	0.425	0.403	0.393	0.394	0.85	0.768	0.713	0.643	0.377
NCI-H1648															0.817	0.407	0.4	
NCI-H2126	0.533	0.521	0.499	0.61	0.752	0.667	0.616	0.717	0.504	0.575	0.471	0.527	0.621	0.789	0.889	0.93	0.851	
EBC-1				0.203	0.212	0.203	0.226	0.234						0.638	0.618	0.571	0.352	
NCI-H1651	0.352	0.311	0.365	0.777	0.644	0.758	0.804	0.599	0.272	0.336	0.398	0.365	0.278	0.194	0.174	0.184	0.164	0.318
HCC-827	0.4	0.396	0.435	0.187	0.205	0.2	0.191	0.205	0.396	0.377	0.424	0.387	0.394	0.553	0.634	0.593	0.617	0.345
NCI-H2085	0.705	0.66	0.58	0.666	0.644	0.681	0.469	0.462	0.765	0.951	0.665	0.685	0.568		0.734	0.764	0.791	
EPLC-272H	0.273	0.26	0.144	1.04	0.881	0.822		0.962	0.219	0.254	0.398	0.327	0.248	0.866	0.938	0.612	0.309	0.263
A-427	0.303	0.298	0.337	0.998	0.992	1.01	0.991	1.05	0.234	0.313	0.315	0.328	0.31	0.572	0.762	0.586	0.594	
NCI-H2228	0.341	0.355	0.342	0.948	1.46	0.909	0.759	0.751	0.316	0.318	0.322	0.307	0.225	0.647	0.548	0.476	0.45	0.255
ABC-1	0.24	0.253	0.274	0.987	1.14	1.12	1.24	1.09	0.241	0.274	0.241	0.259	0.239	0.781	1.05	1.08	1.01	0.27
EMC-BAC-2	0.481	0.476	0.396	0.841	0.83	0.894	0.903	0.874	0.38	0.563	0.492	0.533	0.43	0.52	0.442	0.393	0.347	0.475
ChaGo-K-1	0.494	0.46	0.513						0.448	0.523	0.519	0.483	0.407	0.464	0.395	0.364	0.324	0.537
NCI-H522	0.559	0.704	0.829						0.643	0.613	0.747	0.571	0.63	0.61	0.651	0.606	0.676	0.609
Calu-6				0.929	0.916	1.04	1.17	0.962						0.548	0.526	0.562	0.419	
NCI-H1703				1.02	0.974	0.95	0.859	0.757							0.426	0.332	0.458	
NCI-H441	0.956	0.889	0.643						0.706	1.01	1.03	0.927	0.633	0.575	0.471	0.478	0.455	
SW 900	0.635	0.433	0.48						0.484	0.895	0.534	0.638	0.405	0.845	0.836	0.853	0.621	0.441
IA-LM				0.783	0.797	0.979	1.01	0.612						0.728	0.92	0.737	0.586	
